Results taken from paper PMC12332667, “Role of Structural Modifications in Peptidomimetic Compounds as Potential Antimicrobial Agents against Staphylococcus aureus and Streptococcus pyogenes: Balancing Bioavailability, Safety, and Antimicrobial Activity” (ACS Omega, 2025).
≈ marks a conversion by molar mass, not a printed value. Where “and” joins values, the source holds several entries; their conditions need not be identical. Equal entries are not always repeated. Residues, ends and D or L forms follow the SMILES beside them.

Columns and labels:
S. pyogenes ATCC 19615 = assay: MIC/MBC broth microdilution, S. pyogenes; type: cell-based, Streptococcus pyogenes; settings: S. pyogenes
Summary of the method: (§1)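 BHI broth microdilution (NCCLS); ~10^5 CFU/mL; 37 °C, 18 h. MIC = lowest conc., no visible growth (≥90% vs untreated). MBC = ≤3 colonies, ≥99.9% kill. Water/DMSO/EtOH solvent controls; technical triplicate ×3 biological repeats.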

S. aureus ATCC 43300 = assay: MIC/MBC broth microdilution, S. aureus; type: cell-based, Staphylococcus aureus; settings: S. aureus
E. faecalis c.i. = assay: MIC/MBC broth microdilution, E. faecalis; type: cell-based, Enterococcus faecalis
Summary of the method: as §1

S. cohnii c.i. = assay: MIC/MBC broth microdilution, S. cohnii; type: cell-based, Staphylococcus cohnii
Summary of the method: as §1

fibroblasts (46BR.1N) = assay: LDH cytotoxicity test, fibroblasts; type: cell-based; settings: for cytotoxicity (LDH), in words / concentration at which cytotoxic effect starts: 48 h; for cytotoxicity (LDH), in words: 50-150 μg/mL; for concentration at which cytotoxic effect starts: LDH
Summary of the method: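 Cytotoxicity as LDH release after 48 h serum-free treatment (50, 100, 150 μg/mL peptidomimetics) of 46BR.1N fibroblasts or HaCaT keratinocytes seeded at 5000 per well. Absorbance 450 nm; untreated set as 0% and Triton X-100 1% as maximal release; Mann–Whitney U test, p ≤ 0.05.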

P. vulgaris ATCC 6896 = assay: MIC/MBC broth microdilution, P. vulgaris; type: cell-based, Proteus vulgaris
Summary of the method: as §1

S. mutans c.i. = assay: MIC/MBC broth microdilution, S. mutans; type: cell-based, Streptococcus mutans
Summary of the method: as §1

P. aeruginosa ATCC 10145 = assay: MIC/MBC broth microdilution, P. aeruginosa; type: cell-based
Summary of the method: as §1

[1] = tested on: immortalized human HaCaT keratinocytes; assay: XTT cell proliferation assay, keratinocytes; type: cell-based; settings: for effect on proliferation, in words: 48 and 72 h, 0.01–150 μg/mL
Summary of the method: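 Proliferation was read as XTT absorbance at 490 nm after 4 h of reagent incubation, following 48 or 72 h of peptide exposure in serum-free HG-DMEM (37 °C, 5% CO2). The 72 h arm included a half-medium change with second peptide dose at 48 h. Significance by Mann–Whitney U, p ≤ 0.05.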

Row | Structure (SMILES) | MBC (S. pyogenes ATCC 19615; H2O) [µg/mL] | MIC (S. pyogenes ATCC 19615; H2O) [µg/mL] | MBC (S. pyogenes ATCC 19615; water additive DMSO) [µg/mL] | MIC (S. pyogenes ATCC 19615; water additive DMSO) [µg/mL] | MBC (S. pyogenes ATCC 19615; water additive EtOH) [µg/mL] | MIC (S. pyogenes ATCC 19615; water additive EtOH) [µg/mL] | MBC (S. aureus ATCC 43300; H2O) [µg/mL] | MIC (S. aureus ATCC 43300; H2O) [µg/mL] | MIC (S. aureus ATCC 43300; water additive DMSO) [µg/mL] | MBC (S. aureus ATCC 43300; water additive EtOH) [µg/mL] | MIC (S. aureus ATCC 43300; water additive EtOH) [µg/mL] | MIC (E. faecalis c.i.; H2O) [µg/mL] | MIC (E. faecalis c.i.; water additive DMSO) [µg/mL] | MIC (E. faecalis c.i.; water additive EtOH) [µg/mL] | MBC (S. cohnii c.i.; water additive DMSO) [µg/mL] | MIC (P. vulgaris ATCC 6896; H2O) [µg/mL] | MIC (P. vulgaris ATCC 6896; water additive DMSO) [µg/mL] | MIC (P. vulgaris ATCC 6896; water additive EtOH) [µg/mL] | MIC (S. mutans c.i.; water additive DMSO) [µg/mL] | MIC (S. mutans c.i.; water additive EtOH) [µg/mL] | also measured
1 | CC(C)[C@@H](CNC(=O)C(=Cc1ccccc1)c1ccccc1)NC(=O)[C@H](CCCNC(=N)N)NC(=O)[C@H](CCCCNC(=N)N)NC(=O)OCc1ccccc1 [Compound A-192] | 8 (≈ 10.4 µM) | 8 (≈ 10.4 µM) | 8 (≈ 10.4 µM) | 8 (≈ 10.4 µM) | 8 (≈ 10.4 µM) | 4 (≈ 5.2 µM) | 4 (≈ 5.2 µM) | 4 (≈ 5.2 µM) | 16 (≈ 20.8 µM) | 16 (≈ 20.8 µM) | 16 (≈ 20.8 µM) | > 512 | > 512 | 256 (≈ 333 µM) | 32 (≈ 41.6 µM) | > 512 | > 512 | > 512 | > 512 | > 512 | MBC (S. aureus ATCC 43300; water additive DMSO): 16 µg/mL (≈ 20.8 µM); MBC (E. faecalis c.i.; water additive EtOH): 512 µg/mL (≈ 666 µM); MBC (S. cohnii c.i.; H2O): 32 µg/mL (≈ 41.6 µM); MIC (S. cohnii c.i.; H2O): 16 µg/mL (≈ 20.8 µM); MIC (S. cohnii c.i.; water additive DMSO): 32 µg/mL (≈ 41.6 µM); MBC (S. cohnii c.i.; water additive EtOH): 32 µg/mL (≈ 41.6 µM); MIC (S. cohnii c.i.; water additive EtOH): 16 µg/mL (≈ 20.8 µM); cytotoxicity (LDH), in words (fibroblasts (46BR.1N)): much lower; MIC (S. mutans c.i.; H2O): > 512 µg/mL; MBC (P. aeruginosa ATCC 10145; H2O): 256 µg/mL (≈ 333 µM); MIC (P. aeruginosa ATCC 10145; water additive EtOH): > 512 µg/mL; proliferation relative to control at 100 and 150 μg/mL ([1]; XTT): 25%; proliferation relative to control at 50 μg/mL ([1]; XTT, 50 μg/mL): 50%; effect on proliferation, in words ([1]; XTT): negative impact
2 | CC(C)[C@@H](CNC(=O)C(=Cc1ccccc1)c1ccccc1)NC(=O)[C@H](Cc1c[nH]cn1)NC(=O)[C@H](CCCCNC(=N)N)NC(=O)OCc1ccccc1 [Compound A-193] | 16 (≈ 21.3 µM) | 8 (≈ 10.7 µM) | 16 (≈ 21.3 µM) | 8 (≈ 10.7 µM) | 16 (≈ 21.3 µM) | 8 (≈ 10.7 µM) | 32 (≈ 42.7 µM) | 32 (≈ 42.7 µM) | 32 (≈ 42.7 µM) | 32 (≈ 42.7 µM) | 32 (≈ 42.7 µM) | 256 (≈ 341 µM) | 512 (≈ 683 µM) | – | 256 (≈ 341 µM) | > 512 | > 512 | > 512 | 8 (≈ 10.7 µM) | 8 (≈ 10.7 µM) | MBC (S. aureus ATCC 43300; water additive DMSO): 32 µg/mL (≈ 42.7 µM); MBC (E. faecalis c.i.; H2O): 512 µg/mL (≈ 683 µM); MBC (E. faecalis c.i.; water additive EtOH): 256 µg/mL (≈ 341 µM); cytotoxicity (LDH), in words (fibroblasts (46BR.1N)): cytotoxic only at a concentration of 150 μg/mL; concentration at which cytotoxic effect starts (fibroblasts (46BR.1N)): 150 µg/mL; MBC (S. mutans c.i.; water additive DMSO): 16 µg/mL (≈ 21.3 µM); MBC (S. mutans c.i.; water additive EtOH): 16 µg/mL (≈ 21.3 µM); MIC (P. aeruginosa ATCC 10145; H2O): > 512 µg/mL; MIC (P. aeruginosa ATCC 10145; water additive DMSO): 512 µg/mL (≈ 683 µM); MIC (P. aeruginosa ATCC 10145; water additive EtOH): > 512 µg/mL; antiproliferative effect (decrease vs control) ([1]; up to 150 μg/mL, A-193 and A-179 after 48 h): over 50%
3 | CC(C)[C@H](NC(=O)[C@H](Cc1c[nH]cn1)NC(=O)[C@H](CCCNC(=N)N)NC(=O)OCc1ccccc1)C(=O)NCCc1ccccc1 [Compound A-219] (HELM PEPTIDE1{[O=C(OCc1ccccc1)[*:2]].R.H.V.[c1ccc(CCN[*:1])cc1]}$$$$V2.0) | 512 (≈ 790 µM) | 512 (≈ 790 µM) | 512 (≈ 790 µM) | 512 (≈ 790 µM) | 512 (≈ 790 µM) | 512 (≈ 790 µM) | – | > 512 | > 512 | – | > 512 | > 512 | > 512 | > 512 | – | > 512 | > 512 | > 512 | > 512 | > 512 | MIC (S. cohnii c.i.; H2O): > 512 µg/mL; MIC (S. cohnii c.i.; water additive DMSO): > 512 µg/mL; MIC (S. cohnii c.i.; water additive EtOH): > 512 µg/mL; cytotoxicity (LDH), in words (fibroblasts (46BR.1N)): slight cytotoxicity; MIC (S. mutans c.i.; H2O): > 512 µg/mL; MBC (P. aeruginosa ATCC 10145; H2O): > 512 µg/mL; MIC (P. aeruginosa ATCC 10145; H2O): 512 µg/mL (≈ 790 µM); MBC (P. aeruginosa ATCC 10145; water additive DMSO): 512 µg/mL (≈ 790 µM); MIC (P. aeruginosa ATCC 10145; water additive DMSO): 256 µg/mL (≈ 395 µM); MBC (P. aeruginosa ATCC 10145; water additive EtOH): > 512 µg/mL; MIC (P. aeruginosa ATCC 10145; water additive EtOH): 512 µg/mL (≈ 790 µM); pro-proliferative effect above control ([1]; A-196 0.01–10 μg/mL, A-219 above 0.1 μg/mL, A-213 lower concentrations): around 20%; effect on proliferation, in words ([1]; XTT): best pro-proliferative effect
4 | CC(C)[C@H](NC(=O)[C@H](Cc1c[nH]cn1)NC(=O)[C@H](CCCCN)NC(=O)OCc1ccccc1)C(=O)NCCc1ccccc1 [Compound A-220] (HELM PEPTIDE1{[O=C(OCc1ccccc1)[*:2]].K.H.V.[c1ccc(CCN[*:1])cc1]}$$$$V2.0) | > 512 | 512 (≈ 826 µM) | 256 (≈ 413 µM) | – | 512 (≈ 826 µM) | 512 (≈ 826 µM) | 512 (≈ 826 µM) | 512 (≈ 826 µM) | 512 (≈ 826 µM) | 512 (≈ 826 µM) | 512 (≈ 826 µM) | > 512 | > 512 | > 512 | 512 (≈ 826 µM) | > 512 | > 512 | > 512 | > 512 | > 512 | MBC (S. aureus ATCC 43300; water additive DMSO): 512 µg/mL (≈ 826 µM); MBC (S. cohnii c.i.; H2O): 512 µg/mL (≈ 826 µM); MIC (S. cohnii c.i.; H2O): 256 µg/mL (≈ 413 µM); MIC (S. cohnii c.i.; water additive DMSO): 256 µg/mL (≈ 413 µM); MBC (S. cohnii c.i.; water additive EtOH): 512 µg/mL (≈ 826 µM); MIC (S. cohnii c.i.; water additive EtOH): 256 µg/mL (≈ 413 µM); cytotoxicity (LDH) (fibroblasts (46BR.1N); 48 h, 50, 100 and 150 μg/mL, vs 1% Triton X-100): 10–15% and 10%; concentration at which cytotoxic effect starts (fibroblasts (46BR.1N)): > 150 µg/mL; MBC (S. mutans c.i.; H2O): 512 µg/mL (≈ 826 µM); MIC (S. mutans c.i.; H2O): 256 µg/mL (≈ 413 µM); MBC (P. aeruginosa ATCC 10145; H2O): > 512 µg/mL; MIC (P. aeruginosa ATCC 10145; H2O): 512 µg/mL (≈ 826 µM); MBC (P. aeruginosa ATCC 10145; water additive DMSO): > 512 µg/mL; MIC (P. aeruginosa ATCC 10145; water additive DMSO): 512 µg/mL (≈ 826 µM); MBC (P. aeruginosa ATCC 10145; water additive EtOH): > 512 µg/mL; MIC (P. aeruginosa ATCC 10145; water additive EtOH): 512 µg/mL (≈ 826 µM); effect on proliferation, in words ([1]; XTT): did not exert any negative impact
5 | CC(C)[C@H](NC(=O)[C@H](CCCNC(=N)N)NC(=O)[C@H](CCCNC(=N)N)NC(=O)OCc1ccccc1)C(=O)NCCc1ccccc1 [Compound A-221] (HELM PEPTIDE1{[O=C(OCc1ccccc1)[*:2]].R.R.V.[c1ccc(CCN[*:1])cc1]}$$$$V2.0) | 256 (≈ 384 µM) | – | > 512 | 512 (≈ 768 µM) | 256 (≈ 384 µM) | – | 512 (≈ 768 µM) | 512 (≈ 768 µM) | > 512 | 512 (≈ 768 µM) | 256 (≈ 384 µM) | > 512 | > 512 | > 512 | 256 (≈ 384 µM) | > 512 | > 512 | > 512 | > 512 | > 512 | MBC (S. cohnii c.i.; H2O): 256 µg/mL (≈ 384 µM); MBC (S. cohnii c.i.; water additive EtOH): 256 µg/mL (≈ 384 µM); cytotoxicity (LDH), in words (fibroblasts (46BR.1N)): slight cytotoxicity; MIC (S. mutans c.i.; H2O): > 512 µg/mL; MBC (P. aeruginosa ATCC 10145; H2O): 256 µg/mL (≈ 384 µM); MIC (P. aeruginosa ATCC 10145; water additive DMSO): 32 µg/mL (≈ 48 µM); effect on proliferation, in words ([1]; XTT): pro-proliferating effect at lower concentrations followed by an antiproliferative effect at higher concentrations
